Reference: patent US20110245323A1, “RIG-Like Helicase Innate Immunity Inhibits VEGF-Induced Tissue Responses” (Yale University, priority 2006, published 2011)
Entries after “also recorded” stand apart in the source; their conditions may differ.

What was measured:
Type in all cases: in vivo, mouse
IFNAR1 = experiment: Poly(I:C) regulation of VEGF responses in IFNAR1 null VEGF Tg+ mice
Text: TLR3^−/−-mice were a gift from Dr. Richard A. Flavell (Yale University), MAVS null mice were a gift from Dr Zijian J. Chen (U of Texas Southwestern) (Sun et al., 2006, Immunity 24:633-642), double stranded RNA-dependent protein kinase null mutant mice (PKR^−/−) were a gift from Dr. Bryan R. G. Williams (Cleveland Clinic Foundation) (Yang et al., 1995, Embo J 14:6095-6106) and IFNAR1 null mice were obtained from Dr. Richard Enelow (Dartmouth). These mice were bred with the VEGF Tg+ mice to generate transgenic mice with wild type (+/+) or null (−/−) TLR3, MAVS, PKR or IFNAR1 loci. Thus, in each given experiment, the effects in transgene negative (Tg−) and transgenic (Tg+) mice with WT and null TLR3, MAVS, PKR or IFNAR1 loci were compared.
To define the effects of Poly(I:C) a number of protocols were employed. In most experiments, a pretreatment-2 week protocol was employed. In these experiments, WT and Tg+ mice were treated with Poly(I:C) (30 μg in 50 lambda unless otherwise indicated; Amersham Biosciences, N.J.) or vehicle control via nasal aspiration and transgene activation was accomplished via the administration of dox (0.5 mg/ml) in the animal's drinking water 24 hours later. The Poly(I:C) was administered every other day and the dox was administered continuously for up to 2 weeks. […]

[1] = system: OVA sensitized and challenged mice; experiment: Ovalbumin (OVA) sensitization and challenge Th2 inflammation model
Experimental: (§1) Mice were sacrificed using intraperitoneal ketamine/xylazine injection and the trachea was cannulated and perfused with two 0.9 nil aliquots of cold saline. The cellular contents and BAL fluid were separated by centrifugation, the BAL cell number was quantitated and cell differential was assessed. The BAL fluid was stored in aliquots at −80° C.
ELISA assay kits for VEGF and IL-13 were purchased from R&D Systems (Minneapolis, Minn.).
OVA sensitization (with alum) and aerosol OVA challenge were undertaken as previously described (Lee et al., 2008, Am J Respir Cell Mol Biol 39:739-746; Lee et al., 2009, J Exp Med 206:1149-1166). The responses in mice that had been treated with Poly(I:C) or vehicle 24 hours before the aerosol challenge were compared. The BAL and tissue responses were evaluated 24 hours after antigen challenge.

[2] = system: CC10-rtTA-VEGF165 transgenic mice; experiment: VEGF-induced pulmonary hemorrhage in BAL fluids; settings: Tg+ mice, pretreatment, vs vehicle
Experimental: The CC10-rtTA-VEGF165 transgenic mice used in this study were generated and used as described previously (Lee et al., 2004, Nature Medicine 10:1095-103), which reference is incorporated herein in its entirety. These animals were housed under barrier conditions in the animal facility at Yale University School of Medicine. In these experiments 6-8 week old transgenic (Tg+) animals and their transgene negative littermate controls (Tg−) were randomized to receive water with doxycycline (dox) (0.5 mg/ml) or normal water. Two weeks later they were sacrificed and the VEGF-induced phenotype was evaluated as described below (Lee et al., 2004, Nature Medicine 10:1095-103). […]
as §1, with “The BAL fluid was stored in aliquots at −80° C.” left out
The lungs were removed en bloc as described elsewhere herein, inflated at 25 cm pressure with PBS containing 0.5% low melting point agarose gel, fixed in Streck solution (Streck Laboratories, La Vista, Nebr.), embedded in paraffin, sectioned and stained. […] Pulmonary hemorrhage was evaluated by quantitating BAL red blood cell number with a Coulter counter (Beckman Coulter).

[3] = system: CC10-rtTA-VEGF165 transgenic mice; experiment: VEGF-induced angiogenesis, anti-CD31 immunohistochemistry and vessel area density; settings: for VEGF-induced angiogenesis (vascular density, appearance, sprouting): pretreatment starting 1 day before dox, vs vehicle
Experimental: The CC10-rtTA-VEGF165 transgenic mice used in this study were generated and used as described previously (Lee et al., 2004, Nature Medicine 10:1095-103), which reference is incorporated herein in its entirety. These animals were housed under barrier conditions in the animal facility at Yale University School of Medicine. In these experiments 6-8 week old transgenic (Tg+) animals and their transgene negative littermate controls (Tg−) were randomized to receive water with doxycycline (dox) (0.5 mg/ml) or normal water. Two weeks later they were sacrificed and the VEGF-induced phenotype was evaluated as described below (Lee et al., 2004, Nature Medicine 10:1095-103).
To define the effects of these agents on the tissue responses induced by VEGF, two experimental procedures were used. In the first, a pretreatment protocol was used. In these experiments the noted innate immunity agonist ([…] unless otherwise indicated) or its vehicle control (PBS) were administered intranasally and aspirated into the lungs of randomized Tg+ and Tg− mice starting one day before the Dox water treatment. The doses were administered to the mice every other day during the 2 week doxyxycline (dox) treatment interval.
To determine if the innate immunity agonists altered established VEGF-induced tissue responses, a “post treatment” protocol was used in selected experiments. In these experiments the innate immunity agonist was administered 2 days or 14 days after the doxycycline and VEGF-induced responses were evaluated 2 weeks later.
To define the effects of Poly(I:C) a number of protocols were employed. In most experiments, a pretreatment-2 week protocol was employed. In these experiments, WT and Tg+ mice were treated with Poly(I:C) (30 μg in 50 lambda unless otherwise indicated; Amersham Biosciences, N.J.) or vehicle control via nasal aspiration and transgene activation was accomplished via the administration of dox (0.5 mg/ml) in the animal's drinking water 24 hours later. The Poly(I:C) was administered every other day and the dox was administered continuously for up to 2 weeks.
In selected experiments a pretreatment protocol and shorter treatment interval was employed. In these experiments, WT and Tg+ mice were treated with Poly(I:C) (30 μg/mouse/dose in 50 μl) or vehicle control via nasal aspiration and transgene activation was accomplished with dox 24 hours later. The animals were then randomized to not receive or receive one additional dose of Poly(I:C) 24 hours later and dox was administered continuously during this 2 week interval.
Lastly, in selected experiments post-transgene activation protocols were employed. In these experiments dox was administered for 2 days or 2 weeks. The Poly(I:C) was then administered via intranasal aspiration every other day for 2 weeks as disclosed elsewhere herein. In selected pre-treatment and post-transgene activation experiments, unmethylated CpG (CpG-B) (Keck Center, Yale University) was also employed at similar doses. At the end of these intervals, assessments of angiogenesis (anti-CD31 immunohistochemistry), vascular permeability (Evan's blue dye extravasation, wet to dry lung weight measurements, BAL protein concentration), BAL and tissue inflammatory cell infiltration and mucus metaplasia (periodic acid-Schiff (PAS) staining, MUC5AC immunoblotting) were undertaken. In all cases experiments were designed to compare Tg− and Tg+ mice on normal water and Tg− and Tg+ mice on dox water.

“polyinosinic-polycytidylic acid [Poly(I:C)]” was tested, and the “ability to inhibit VEGF-induced angiogenesis, edema, inflammation and mucin production in Tg+ mice with null mutations of IFNAR1” value (IFNAR1; 30 μg pretreatment, 2 weeks) was “significantly decreased”, the “ability to inhibit Erk, FAK, Akt and eNOS signaling pathways in mice lacking the IFNAR1 receptor” value (IFNAR1; Tg+ mice lung immunoblot) was “significantly decreased” and the “OVA-induced cytokine response (BAL IL-13)” value [1] was “significant decrease”. The “OVA-induced inflammatory response (BAL total cell, macrophage, eosinophil, lymphocyte recovery)” value ([1]; Poly(I:C) 24 hours before aerosol challenge) was “significant decrease; also recorded: abrogated”, the “VEGF-induced bleeding / hemorrhage in BAL fluids” value [2] was “significantly decreased” and the “VEGF-induced vascular responses, delayed administration” value ([3]; Tg+ mice, given 2 days (48 hours) or 14 days (2 weeks) after transgene activation with dox) was “significant decrease; also recorded: significant inhibition”. For the same substance, the “VEGF-induced angiogenesis (vascular density, appearance, sprouting)” value ([3]; Tg+ mice) was “inhibited”, the “VEGF-induced angiogenesis (vascular density, appearance, sprouting)” value ([3]; Tg+ mice, listed as poly(I:C)) was “markedly decreased” and the “Vascularity (%)” value ([3]; VEGF-induced tissue responses, TLR agonist administration, PBS control 43) was 28.7%. The “lowest dose with significant inhibition of VEGF-induced angiogenesis” value ([3]; pretreatment) was 5 µg, the “dose with maximal inhibition of VEGF-induced angiogenesis” value ([3]; pretreatment, highest dose tested) was 30 µg and the “vascular density after as little as 1 dose” value ([3]; shorter treatment interval, 1 dose before dox) was “significant decrease”.
